Measured values taken from ChEMBL document CHEMBL1201862, “PubChem BioAssay data set” (2004).
The source made the active and inactive calls.

Columns and labels:
[1] = Luminescence Cell-Based Dose Confirmation HTS to Identify Inhibitors of Polyadenylation.; type: functional
[2] = target: T1, Alkaline phosphatase, tissue-nonspecific isozyme (Homo sapiens, UniProt P05186)
T1 sequence (P05186 whole entry): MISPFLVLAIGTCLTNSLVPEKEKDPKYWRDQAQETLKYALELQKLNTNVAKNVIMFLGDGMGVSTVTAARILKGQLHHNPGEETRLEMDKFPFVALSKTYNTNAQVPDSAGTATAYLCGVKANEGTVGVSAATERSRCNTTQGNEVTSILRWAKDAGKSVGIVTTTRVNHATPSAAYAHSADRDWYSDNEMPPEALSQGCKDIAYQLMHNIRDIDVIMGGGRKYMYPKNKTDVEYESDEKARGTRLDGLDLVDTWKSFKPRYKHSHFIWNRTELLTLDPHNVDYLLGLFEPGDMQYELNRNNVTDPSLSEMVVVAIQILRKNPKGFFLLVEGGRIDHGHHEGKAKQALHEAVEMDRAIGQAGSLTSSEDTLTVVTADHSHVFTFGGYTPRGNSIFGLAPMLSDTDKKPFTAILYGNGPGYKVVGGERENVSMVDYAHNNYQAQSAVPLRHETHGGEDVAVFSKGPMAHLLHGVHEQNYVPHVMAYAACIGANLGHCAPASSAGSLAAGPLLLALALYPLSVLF

[3] = target: T2, Replicative DNA helicase DnaB (Mycobacterium tuberculosis, UniProt P9WMR3); experiment: DnaB intein splicing inhibitors, dose response, biochemical, cell-free fluorescence (AID 449749); type: functional
T2 sequence (P9WMR3 whole entry): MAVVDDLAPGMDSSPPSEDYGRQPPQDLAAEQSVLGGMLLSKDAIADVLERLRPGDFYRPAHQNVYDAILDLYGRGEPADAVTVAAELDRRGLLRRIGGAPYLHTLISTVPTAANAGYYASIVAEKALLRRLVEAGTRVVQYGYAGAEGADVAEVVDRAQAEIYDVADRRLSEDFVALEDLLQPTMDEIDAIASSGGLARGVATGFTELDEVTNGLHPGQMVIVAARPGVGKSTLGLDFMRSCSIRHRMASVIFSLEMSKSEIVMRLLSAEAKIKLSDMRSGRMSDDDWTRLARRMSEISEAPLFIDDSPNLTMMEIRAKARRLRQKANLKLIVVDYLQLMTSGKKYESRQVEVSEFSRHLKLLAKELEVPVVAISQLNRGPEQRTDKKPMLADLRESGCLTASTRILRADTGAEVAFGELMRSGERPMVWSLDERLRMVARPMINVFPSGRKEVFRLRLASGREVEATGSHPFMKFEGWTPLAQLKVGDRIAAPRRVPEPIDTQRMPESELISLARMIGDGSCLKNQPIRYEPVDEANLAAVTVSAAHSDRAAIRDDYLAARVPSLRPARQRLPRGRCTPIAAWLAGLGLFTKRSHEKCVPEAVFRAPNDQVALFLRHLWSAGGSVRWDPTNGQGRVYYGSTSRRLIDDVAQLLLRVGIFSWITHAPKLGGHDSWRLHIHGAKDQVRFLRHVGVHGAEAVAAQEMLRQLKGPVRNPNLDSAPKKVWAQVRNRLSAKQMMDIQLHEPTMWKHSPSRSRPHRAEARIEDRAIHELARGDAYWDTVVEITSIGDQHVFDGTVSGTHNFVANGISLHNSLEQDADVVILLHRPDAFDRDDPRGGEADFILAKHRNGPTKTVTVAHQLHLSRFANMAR

Protein RecA = target: T3, Protein RecA (Mycobacterium tuberculosis, UniProt P9WHJ3); experiment: Fluorescence Cell-Free Homogeneous Dose Retest to Identify Inhibitors of RecA-Intein Splicing Activity. [Related pubchem assays (depositor defined):AID2097, AID2223, AID489010, AID492950]; type: functional
T3 sequence (P9WHJ3 whole entry): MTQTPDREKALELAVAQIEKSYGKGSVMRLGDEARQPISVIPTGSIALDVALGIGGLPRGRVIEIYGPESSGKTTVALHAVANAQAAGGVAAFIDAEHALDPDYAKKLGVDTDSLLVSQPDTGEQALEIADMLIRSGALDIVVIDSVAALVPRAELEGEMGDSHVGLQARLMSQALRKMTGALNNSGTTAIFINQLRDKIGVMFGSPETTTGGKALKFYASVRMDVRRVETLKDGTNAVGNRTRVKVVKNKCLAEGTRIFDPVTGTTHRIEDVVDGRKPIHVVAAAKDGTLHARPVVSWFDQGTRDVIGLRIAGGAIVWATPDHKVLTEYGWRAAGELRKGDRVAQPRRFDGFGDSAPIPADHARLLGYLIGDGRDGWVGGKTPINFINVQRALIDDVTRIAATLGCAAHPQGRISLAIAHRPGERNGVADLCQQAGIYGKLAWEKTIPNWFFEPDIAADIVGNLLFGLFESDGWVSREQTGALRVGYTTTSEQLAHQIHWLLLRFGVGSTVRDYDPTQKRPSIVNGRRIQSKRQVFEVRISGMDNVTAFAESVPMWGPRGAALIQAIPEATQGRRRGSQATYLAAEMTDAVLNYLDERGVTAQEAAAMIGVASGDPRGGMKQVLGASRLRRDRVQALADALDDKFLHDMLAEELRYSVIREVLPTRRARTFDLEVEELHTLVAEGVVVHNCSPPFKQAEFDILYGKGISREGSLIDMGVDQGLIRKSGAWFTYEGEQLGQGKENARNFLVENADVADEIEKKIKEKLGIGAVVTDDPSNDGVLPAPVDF

[4] = M. tuberculosis H37Rv growth inhibitors, H37Rv strain (AID 1626); type: functional
[5] = inhibitors of firefly luciferase expression or activity, dose response, H4 neuroglioma cells, luminescence (AID 1990); type: functional, cell-based
BJ [6] = experiment: cytotoxicity toward BJ-TERT fibroblasts, dose response, cell-based, RAS-independent, luminescence (AID 1933); type: functional; settings: Homo sapiens
[7] = Luminescence Cell-Based Dose Response HTS to Identify Inhibitors of 5'UTR Stem-Loop Driven Prion Protein mRNA Translation in H4 Neuroglioblastoma Cells. [Related pubchem assays: 1827 (Project Summary), 1813 (Primary HTS)]; type: functional
[8] = inhibitors of SNCA 5'UTR-driven reporter translation, confirmation, H4 neuroglioma cells, luminescence (AID 1988); type: functional, cell-based
BJ [9] = experiment: cells; type: functional, cell-based; settings: Homo sapiens
[10] = Luminescence-based dose response cell-based high throughput screening assay for cytotoxic compounds using the IEC-6 intestinal epithelial cell line. [Related pubchem assays: 1858 (Summary AID.), 1825 (Counterscreen.), 1907 (Confirmation screen.)]; type: functional
BJ [11] = experiment: cytotoxicity toward BJ-TERT-LT-ST fibroblasts, dose response, cell-based, RAS-independent, luminescence (AID 1935); type: functional; settings: Homo sapiens;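 further: BJ fibroblasts immortalized with TERT plus LT and ST oncogenes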
[12] = cytotoxicity toward DRD oncogenic fibroblasts, dose response, cell-based, non-viral oncogenic, luminescence (AID 1934); type: functional; settings: Homo sapiens
[13] = cytotoxicity in HEK-293T cells, dose response, cytotoxicity control for TCR NF-kB inhibitor project, luminescence, T-cell screen hits (AID 489026); type: functional, cell-based;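 further: cells exposed to compound about 14 hours before the viability readout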
BJ [14] = experiment: cytotoxicity toward Ras-transformed BJeLR fibroblasts, dose response, cell-based, alamar blue fluorescence, cherrypicked samples (AID 2631); type: functional; settings: Homo sapiens;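 further: confirmatory dose-response assay in RAS-dependent BJ fibroblasts engineered with TERT, LT and ST, with cytotoxicity read by fluorescence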
Paired box protein Pax-8 = Paired box protein Pax-8 (Homo sapiens, UniProt Q06710); experiment: inhibitors of PAX8-driven TPO luciferase reporter, dose response, RMG-I cells, cherry-pick (AID 687027); type: functional, cell-based;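 further: luciferase reporter driven by Pax8 target thyroperoxidase promoter measured by SteadyGlo luminescence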
[15] = target: Peroxisome proliferator-activated receptor gamma/Nuclear receptor coactivator 2 (Homo sapiens, UniProt P37231); type: functional;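 further: agonist potency for raising coactivator recruitment to the receptor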
[16] = target: Peroxisome proliferator-activated receptor gamma/Nuclear receptor coactivator 1 (Homo sapiens, UniProt P37231); type: functional;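 further: agonist potency as compounds enhance coactivator SRC-1 recruitment to PPARgamma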
[17] = target: Peroxisome proliferator-activated receptor gamma/Nuclear receptor coactivator 3 (Homo sapiens, UniProt P37231); type: functional;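 further: agonist potency for raising coactivator recruitment to the receptor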
HEK293 [18] = experiment: NOD1 signaling inhibitors, primary screen, cell-based, luminescence, uHTS (AID 1578); type: functional; settings: Homo sapiens
HEK293 [19] = experiment: cells; type: functional, cell-based; settings: Homo sapiens
Galanin receptor type 2 = target: T4, Galanin receptor type 2 (Homo sapiens, UniProt O43603); experiment: Dose Response cell-based high-throughput screening assay to identify antagonists of galanin receptor 2 (GALR2). [Related pubchem assays: 828, 866 ]; type: functional
T4 sequence (O43603 whole entry): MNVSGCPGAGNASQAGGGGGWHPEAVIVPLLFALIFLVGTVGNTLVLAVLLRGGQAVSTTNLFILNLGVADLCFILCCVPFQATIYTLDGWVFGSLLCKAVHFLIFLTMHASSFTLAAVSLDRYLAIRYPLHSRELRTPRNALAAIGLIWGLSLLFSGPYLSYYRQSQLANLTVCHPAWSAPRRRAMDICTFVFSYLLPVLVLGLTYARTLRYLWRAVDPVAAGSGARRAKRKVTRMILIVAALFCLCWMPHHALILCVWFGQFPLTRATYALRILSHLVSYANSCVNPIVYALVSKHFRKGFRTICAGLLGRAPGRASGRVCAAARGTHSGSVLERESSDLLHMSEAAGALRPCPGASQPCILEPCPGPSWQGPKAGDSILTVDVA

HEK293 [20] = experiment: cells; type: functional, cell-based; settings: Homo sapiens; remark: listed apart in the source
[21] = target: Nucleotide-binding oligomerization domain-containing protein 2 (Homo sapiens, UniProt Q9HC29); experiment: NOD2 signaling inhibitors, cell-based, luminescence, uHTS, HEK293 (AID 1566); type: functional
HEK293 [22] = experiment: NOD2 signaling inhibitors in MDP-stimulated cells, cell-based, uHTS, luminescence (AID 2001); type: functional; settings: Homo sapiens
HEK293 [23] = experiment: cells; type: functional, cell-based; settings: Homo sapiens; remark: listed apart in the source
INS1 = experiment: beta cell apoptosis inhibitors, cytokine rescue, dose response, luminescence, retest (AID 449756); type: functional, cell-based; settings: Rattus norvegicus;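 further: cell death triggered by IL-1 beta plus TNF-alpha plus IFN-gamma mixture; protective hits raise ATP signal compared with cytokine alone wells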
[24] = inhibitors of clade B AD8 Env fusion, dose response, cell-based, cherry-pick (AID 652062); type: functional;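 further: luciferase signal from cell-cell fusion driven by HIV-1 clade B AD8 Env; potency is for inhibitors of fusion seen as a drop in luminescence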
[25] = luciferase reporter signal reduction – luminescence, H4-C neuroglioblastoma cells, dose response (AID 2458); type: functional, cell-based;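 further: H4 neuroglioblastoma cells stably carrying a luciferase reporter gene fusion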
cells [26] = type: functional, cell-based
[27] = inhibitors of intracellular T. cruzi replication, confirmation, NIH3T3 host cells, beta-gal luminescence (AID 2044); type: functional, cell-based;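 further: intracellular parasites grown in NIH/3T3 mouse fibroblasts as host cells; luminescent beta-galactosidase reporter signal from transgenic T. cruzi replicating inside host cells; inhibitors lower the luminescence signal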
[28] = inhibitors of SNCA 5'UTR-driven translation, confirmation, luminescence, H4 neuroglioblastoma cells, dose confirmation (AID 2454); type: functional, cell-based;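 further: H4 neuroglioblastoma cells carrying an alpha-synuclein 5'UTR luciferase reporter; potency for inhibition of the luciferase signal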
cells [29] = experiment: cells
[30] = cytotoxicity toward NIH3T3 fibroblasts, dose response, counter-screen, cell-based, ATP luminescence, mouse fibroblasts (AID 2010); type: functional;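 further: cells exposed to compound for about 90 hours before reading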
[31] = Luminescence Cell-Based Dose Retest to Confirm Inhibitors of Cancer Stem Cells. [Related pubchem assays (depositor defined):AID2717, AID2721]; type: functional, Homo sapiens; settings: Homo sapiens
[32] = Shn3 3'UTR reporter inhibitors, dose response, cell-based, Clone20 osteoblasts, firefly luciferase, cherry-picked (AID 624132); type: functional;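 further: firefly luciferase luminescence from reporter carrying the Shn3 3'UTR in osteoblasts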
[33] = HepG2 cell cytotoxicity, dose response, cytotoxicity control for Shn3 inhibitor project, CellTiter-Glo, cherry-picked (AID 624134); type: functional, cell-based
[34] = control 3'UTR Renilla luciferase suppression, dose response, counter-screen for Shn3 inhibitor project, cell-based, Clone20-Shn3RL, cherry-picked (AID 624133); type: functional

Sequence of Peroxisome proliferator-activated receptor gamma/Nuclear receptor coactivator 1 (P37231 whole entry): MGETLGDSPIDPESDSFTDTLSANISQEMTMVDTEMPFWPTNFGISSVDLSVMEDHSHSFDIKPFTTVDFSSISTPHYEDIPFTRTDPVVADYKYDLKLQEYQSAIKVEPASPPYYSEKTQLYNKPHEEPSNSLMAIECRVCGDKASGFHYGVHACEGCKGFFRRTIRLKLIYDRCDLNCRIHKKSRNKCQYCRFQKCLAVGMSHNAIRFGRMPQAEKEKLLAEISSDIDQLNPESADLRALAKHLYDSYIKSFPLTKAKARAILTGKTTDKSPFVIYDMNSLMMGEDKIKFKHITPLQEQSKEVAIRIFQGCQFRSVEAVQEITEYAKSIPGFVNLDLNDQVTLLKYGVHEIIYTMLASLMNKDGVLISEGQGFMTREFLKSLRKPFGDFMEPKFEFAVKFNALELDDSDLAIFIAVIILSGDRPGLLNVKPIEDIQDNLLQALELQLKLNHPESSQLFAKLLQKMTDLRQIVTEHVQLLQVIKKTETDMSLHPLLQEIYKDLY
Sequence of Peroxisome proliferator-activated receptor gamma/Nuclear receptor coactivator 1 (Q15788 whole entry, further chain): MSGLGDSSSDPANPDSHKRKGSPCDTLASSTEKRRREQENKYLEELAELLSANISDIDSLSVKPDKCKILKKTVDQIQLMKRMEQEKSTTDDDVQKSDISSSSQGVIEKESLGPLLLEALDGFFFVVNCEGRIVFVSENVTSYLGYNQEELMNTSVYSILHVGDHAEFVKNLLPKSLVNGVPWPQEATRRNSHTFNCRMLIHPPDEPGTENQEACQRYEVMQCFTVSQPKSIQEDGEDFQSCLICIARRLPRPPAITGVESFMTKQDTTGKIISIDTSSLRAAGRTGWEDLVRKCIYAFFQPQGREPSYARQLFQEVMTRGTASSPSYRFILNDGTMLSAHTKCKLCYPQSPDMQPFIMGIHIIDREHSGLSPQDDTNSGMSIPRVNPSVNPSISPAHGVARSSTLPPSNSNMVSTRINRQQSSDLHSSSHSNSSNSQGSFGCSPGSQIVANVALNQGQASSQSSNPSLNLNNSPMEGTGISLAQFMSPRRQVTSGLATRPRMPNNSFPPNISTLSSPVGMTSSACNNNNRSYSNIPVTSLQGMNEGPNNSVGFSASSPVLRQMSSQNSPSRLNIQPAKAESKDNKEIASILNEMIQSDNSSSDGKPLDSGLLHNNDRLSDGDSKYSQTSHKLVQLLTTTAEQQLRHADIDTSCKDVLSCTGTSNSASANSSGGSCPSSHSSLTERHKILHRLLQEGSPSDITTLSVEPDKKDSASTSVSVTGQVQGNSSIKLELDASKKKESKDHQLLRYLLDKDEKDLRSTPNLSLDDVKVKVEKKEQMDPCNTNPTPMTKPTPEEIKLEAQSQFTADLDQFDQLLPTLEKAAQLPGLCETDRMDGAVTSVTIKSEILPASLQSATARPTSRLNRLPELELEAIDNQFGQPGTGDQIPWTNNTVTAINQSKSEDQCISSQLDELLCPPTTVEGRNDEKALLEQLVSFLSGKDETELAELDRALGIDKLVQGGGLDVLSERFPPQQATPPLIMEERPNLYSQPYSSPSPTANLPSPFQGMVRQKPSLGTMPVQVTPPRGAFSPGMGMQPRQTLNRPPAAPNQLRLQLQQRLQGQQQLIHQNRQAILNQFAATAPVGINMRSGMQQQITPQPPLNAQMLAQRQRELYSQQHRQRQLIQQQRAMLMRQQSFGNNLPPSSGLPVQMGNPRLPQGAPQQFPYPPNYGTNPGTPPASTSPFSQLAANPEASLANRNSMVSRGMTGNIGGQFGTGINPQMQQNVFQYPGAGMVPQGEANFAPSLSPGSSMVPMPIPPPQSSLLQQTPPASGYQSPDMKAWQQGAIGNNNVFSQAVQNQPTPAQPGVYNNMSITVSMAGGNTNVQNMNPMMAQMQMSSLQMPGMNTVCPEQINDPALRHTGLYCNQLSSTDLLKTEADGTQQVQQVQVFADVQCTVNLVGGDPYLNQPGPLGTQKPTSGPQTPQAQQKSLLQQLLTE
Sequence of Peroxisome proliferator-activated receptor gamma/Nuclear receptor coactivator 3 (P37231 whole entry): as the sequence (P37231 whole entry) above
Sequence of Peroxisome proliferator-activated receptor gamma/Nuclear receptor coactivator 3 (Q9Y6Q9 whole entry, further chain): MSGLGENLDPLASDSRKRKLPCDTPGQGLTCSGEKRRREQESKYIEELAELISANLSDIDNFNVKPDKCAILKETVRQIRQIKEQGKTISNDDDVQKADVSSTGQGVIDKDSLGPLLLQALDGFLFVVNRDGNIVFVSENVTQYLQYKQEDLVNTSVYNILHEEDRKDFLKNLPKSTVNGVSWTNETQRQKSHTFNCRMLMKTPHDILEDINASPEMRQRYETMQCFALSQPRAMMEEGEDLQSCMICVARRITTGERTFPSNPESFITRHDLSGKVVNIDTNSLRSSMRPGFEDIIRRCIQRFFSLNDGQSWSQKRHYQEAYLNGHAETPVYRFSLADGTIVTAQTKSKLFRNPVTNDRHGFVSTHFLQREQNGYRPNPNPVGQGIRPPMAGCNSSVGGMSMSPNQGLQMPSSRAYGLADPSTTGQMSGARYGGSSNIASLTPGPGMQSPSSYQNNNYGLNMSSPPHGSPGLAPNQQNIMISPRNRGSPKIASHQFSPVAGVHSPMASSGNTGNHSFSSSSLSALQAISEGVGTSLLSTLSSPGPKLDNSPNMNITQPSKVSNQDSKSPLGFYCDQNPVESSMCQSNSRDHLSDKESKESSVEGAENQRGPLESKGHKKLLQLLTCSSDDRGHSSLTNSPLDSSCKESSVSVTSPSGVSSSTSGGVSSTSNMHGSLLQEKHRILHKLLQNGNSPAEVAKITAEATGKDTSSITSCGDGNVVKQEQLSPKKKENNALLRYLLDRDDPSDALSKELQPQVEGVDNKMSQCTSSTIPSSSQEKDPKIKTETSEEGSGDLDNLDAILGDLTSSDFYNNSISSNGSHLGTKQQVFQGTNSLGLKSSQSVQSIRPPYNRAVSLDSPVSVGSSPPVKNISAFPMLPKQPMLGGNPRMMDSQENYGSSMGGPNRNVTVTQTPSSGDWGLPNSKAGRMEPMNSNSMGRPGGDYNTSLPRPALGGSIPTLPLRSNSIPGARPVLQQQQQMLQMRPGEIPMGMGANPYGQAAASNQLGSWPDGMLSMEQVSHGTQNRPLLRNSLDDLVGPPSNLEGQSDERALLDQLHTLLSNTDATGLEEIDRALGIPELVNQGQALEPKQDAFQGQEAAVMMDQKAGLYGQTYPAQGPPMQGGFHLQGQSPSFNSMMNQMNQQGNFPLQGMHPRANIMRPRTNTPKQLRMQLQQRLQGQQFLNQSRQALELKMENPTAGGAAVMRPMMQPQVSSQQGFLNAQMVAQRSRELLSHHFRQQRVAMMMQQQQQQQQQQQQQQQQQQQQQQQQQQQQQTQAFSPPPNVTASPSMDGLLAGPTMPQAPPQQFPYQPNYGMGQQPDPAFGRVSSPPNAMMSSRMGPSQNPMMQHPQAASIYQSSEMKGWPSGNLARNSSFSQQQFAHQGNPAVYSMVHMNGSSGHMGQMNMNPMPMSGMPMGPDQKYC
Sequence of Paired box protein Pax-8 (Q06710 whole entry): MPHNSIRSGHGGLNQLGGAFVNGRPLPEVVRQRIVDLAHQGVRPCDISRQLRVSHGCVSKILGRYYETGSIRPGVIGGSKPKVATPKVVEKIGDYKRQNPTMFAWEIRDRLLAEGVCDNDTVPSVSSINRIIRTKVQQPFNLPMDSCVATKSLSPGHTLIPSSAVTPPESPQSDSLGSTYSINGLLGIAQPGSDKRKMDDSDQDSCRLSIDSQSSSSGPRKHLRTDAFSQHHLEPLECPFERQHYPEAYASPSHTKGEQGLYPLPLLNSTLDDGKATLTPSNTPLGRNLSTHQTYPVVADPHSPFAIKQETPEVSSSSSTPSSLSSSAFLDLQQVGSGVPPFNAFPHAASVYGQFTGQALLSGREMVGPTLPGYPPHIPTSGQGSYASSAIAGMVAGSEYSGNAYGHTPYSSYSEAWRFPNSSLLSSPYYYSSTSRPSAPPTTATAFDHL

Cn1cccc1Cc1nnc(SCC(=O)NCc2ccccc2Cl)n1-c1ccc(F)cc1
EC50 [1]: > 120 µM (not active)

CC/C(=C/c1sc2ccc(C)cc2[n+]1CCO)SC
EC50 [2]: > 100 µM (not active) | AC50 [3]: > 380 µM (inactive) | EC50 (Protein RecA): 14.2 µM (active)

Cc1ccc2[nH]c(SCC(=O)Nc3ccc4c(c3)CCC4)nc2c1
IC50 [4]: > 100 µM (active)

COc1ccc(CCNc2nnc(Sc3nnnn3-c3ccccc3)s2)cc1OC
EC50 [5]: 5.51 µM (active) | EC50 (BJ [6]): 2.95 µM (active) | EC50 [7]: 10.8 µM (active) | EC50 [8]: 5.09 µM (active) | EC50 (BJ [9]): 3.24 µM (active) | IC50 [10]: 2.49 µM (active) | EC50 (BJ [11]): 2.35 µM (inconclusive) | EC50 [12]: 2.38 µM (active) | IC50 [13]: > 80 µM (inactive) | EC50 (BJ [14]): 0.616 µM (active) | AC50 (Paired box protein Pax-8): 4.21 µM (active)

COc1ccc2nc(C)cc(SCC(=O)Nc3c(C)cc(C)cc3C)c2c1
EC50 [15]: 27.8 µM (not active) | EC50 [16]: 55.2 µM (not active) | EC50 [17]: > 79.4 µM (not active) | EC50 [2]: > 100 µM (not active)

O=C(NC(=S)Nc1ccc(NC(=O)c2ccco2)cc1)c1ccccc1
EC50 [1]: > 120 µM (not active)

Cc1nc2ccc(NC(=O)c3cc(S(=O)(=O)N(C)c4ccccc4)ccc3Cl)cc2s1
EC50 (HEK293 [18]): 2.55 µM (active) | IC50 (HEK293 [19]): 5.43 µM (active) | IC50 (Galanin receptor type 2): > 42 µM (not active) | IC50 (HEK293 [20]): > 20 µM (inactive) | EC50 [21]: > 20 µM (inactive) | IC50 (HEK293 [22]): 3.91 µM (inactive) | IC50 (HEK293 [23]): > 20 µM (inactive) | AC50 (INS1): 1.72 µM (active) | AC50 [24]: 2.17 µM (active)

O=C(O)C1CCCCC1C(=O)Nc1ccccc1Nc1ccccc1 (stereo not drawn)
IC50 [4]: > 100 µM (active)

CC(=O)O[C@H]1C(=O)[C@@]2(C)C([C@H](OC(=O)c3ccccc3)[C@]3(O)C[C@H](OC(=O)[C@H](O)[C@@H](NC(=O)c4ccccc4)c4ccccc4)C(C)=C1C3(C)C)[C@]1(OC(C)=O)CO[C@@H]1C[C@H]2O (stereo partly drawn)
EC50 [5]: < 0.1 µM (active) | EC50 [25]: 0.268 µM (active) | EC50 (cells [26]): 0.222 µM (active) | EC50 [8]: < 0.1 µM (active) | EC50 [27]: < 0.1 µM (active) | IC50 [10]: 0.0719 µM (active) | EC50 [28]: 0.279 µM (active) | IC50 [13]: > 80 µM (inactive) | EC50 (cells [29]): < 0.004 µM (active)

Cc1cc(Nc2cccc(Cl)c2)nc(NCc2ccccc2)n1
IC50 (Galanin receptor type 2): > 42 µM (not active) | EC50 [27]: 0.177 µM (active) | EC50 [30]: > 60 µM (inconclusive) | AC50 [31]: 5.51 µM (active) | AC50 (INS1): 3.21 µM (active) | AC50 [32]: 1.64 µM (active) | AC50 [33]: 53 µM (active) | AC50 [34]: 6.41 µM (active)
